Results on 15 molecules are retold here after patent publication US20230143612A1 (Arbutus Biopharma Corporation, priority 2020, published 2023).

Sequence of PD-L1 His protein / PD-1 Fc protein (Q9NZQ7 19-238 limits assumed): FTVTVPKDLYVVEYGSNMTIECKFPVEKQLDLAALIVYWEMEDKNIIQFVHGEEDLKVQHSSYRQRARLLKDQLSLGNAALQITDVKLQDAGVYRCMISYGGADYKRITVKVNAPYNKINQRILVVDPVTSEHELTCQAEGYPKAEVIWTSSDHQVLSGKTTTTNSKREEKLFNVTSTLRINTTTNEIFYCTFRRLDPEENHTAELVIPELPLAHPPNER

This assay addresses PD-L1 His protein / PD-1 Fc protein (Homo sapiens, UniProt Q9NZQ7). The assay is described as follows: HTRF Assay (PD-1/PD-L1 interaction). The assay is classed as binding. As to conditions: PD-L1 His 6 nM, PD-1 Fc 6 nM. In short, it runs like this: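 HTRF: PD-L1 His (6 nM final), compound (3-fold dilutions, 20 μM to 0.001 μM final) and PD-1 Fc (6 nM final) preincubated 15 min at room temperature. Anti-human IgG-XL665 and anti-6HIS Tb cryptate (mixed at 6.7 nM and 0.35 nM) then added for 1 h at room temperature before reading.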
`COc1nc(-c2cccc(-c3cccc(-c4ccn5c(=O)c(CNC[C@@H](O)CC(=O)O)cnc5c4)c3Cl)c2Cl)cc(F)c1CNC[C@@H]1CCC(=O)N1` [Example 270, (3S)-4-[[8-[2-Chloro-3-[2-chloro-3-[4-fluoro-6-methoxy-5-[[[(2S)-5-oxopyrrolidin-2-yl]methylamino]methyl]-2-pyridyl]phenyl]phenyl]-4-oxo-pyrido[1,2-a]pyrimidin-3-yl]methylamino]-3-hydroxy-butanoic acid] yielded an IC50 of 0.1 nM.

Molecule `COc1nc(-c2cccc(-c3cccc(-c4ccn5c(=O)cc(CN6C[C@@H](O)CC6=O)nc5c4)c3Cl)c2Cl)ccc1CNC[C@@H]1CCC(=O)N1` [Example 342, 8-(2,2′-Dichloro-3′-(6-methoxy-5-(((((S)-5-oxopyrrolidin-2-yl)methyl)amino)methyl)pyridin-2-yl)-[1,1′-biphenyl]-3-yl)-2-(((S)-4-hydroxy-2-oxopyrrolidin-1-yl)methyl)-4H-pyrido[1,2-a]pyrimidin-4-one] displayed an IC50 of 0.1 nM.

In turn, `COc1nc(-c2cccc(-c3cccc(-c4ccn5c(=O)c(CNC[C@@H]6CCC(=O)N6)c(Cl)nc5c4)c3Cl)c2Cl)ccc1CNC[C@@H]1CCC(=O)N1` [Example 227, 2-Chloro-8-(2,2′-dichloro-3′-(6-methoxy-5-(((((S)-5-oxopyrrolidin-2-yl)methyl)amino)methyl)pyridin-2-yl)-[1,1′-biphenyl]-3-yl)-3-(((((S)-5-oxopyrrolidin-2-yl)methyl)amino)methyl)-4H-pyrido[1,2-a]pyrimidin-4-one] showed an IC50 of 12 nM.

The molecule `COc1nc(-c2cccc(-c3cccc(-c4cc(F)c5c(c4)CCN(C[C@@H]4CCC(=O)N4)C5)c3Cl)c2Cl)ccc1CNC[C@@H]1CCC(=O)N1` [Example 425, (S)-5-((6-(2,2′-Dichloro-3′-(6-methoxy-5-(((((S)-5-oxopyrrolidin-2-yl)methyl)-amino)-methyl)-pyridin-2-yl)-[1,1′-biphenyl]-3-yl)-8-fluoro-3,4-dihydroisoquinolin-2(1H)-yl)methyl)pyrrolidin-2-one] returned an IC50 of 8.3 nM. The IC50 values of the last two molecules are within 1.5-fold of each other.

As for `COc1nc(-c2cccc(-c3cccc(-c4cc(F)c5c(c4)CCN(CCNC[C@@H]4CCC(=O)N4)C5=O)c3Cl)c2Cl)ccc1CNC[C@@H]1CCC(=O)N1` [Example 400, 6-(2,2′-Dichloro-3′-(6-methoxy-5-(((((S)-5-oxopyrrolidin-2-yl)methyl)amino)methyl)pyridin-2-yl)-[1,1′-biphenyl]-3-yl)-8-fluoro-2-(2-((((S)-5-oxopyrrolidin-2-yl)methyl)amino)ethyl)-3,4-dihydroisoquinolin-1(2H)-one], the IC50 worked out at 550 nM.

`COc1nc(-c2cccc(-c3cccc(-c4ccn5c(=O)c(CNC[C@@H]6CCC(=O)N6)cnc5c4)c3Cl)c2Cl)cc(F)c1CNC[C@@H]1CCC(=O)N1` [Example 147, 8-(2,2′-Dichloro-3′-(4-fluoro-6-methoxy-5-(((((S)-5-oxopyrrolidin-2-yl)methyl)amino)methyl)pyridin-2-yl)-[1,1′-biphenyl]-3-yl)-3-(((((S)-5-oxopyrrolidin-2-yl)methyl)amino)methyl)-4H-pyrido[1,2-a]pyrimidin-4-one] yielded an IC50 of 3.9 nM.

`COc1nc(-c2cccc(-c3cccc(-c4ccn5c(=O)c(CNC6(C(=O)O)CC6)cnc5c4)c3Cl)c2Cl)ccc1CNC[C@@H]1CCC(=O)N1` [Example 120, (S)-1-(((8-(2,2′-Dichloro-3′-(6-methoxy-5-((((5-oxopyrrolidin-2-yl)methyl)amino)methyl)-pyridin-2-yl)-[1,1′-biphenyl]-3-yl)-4-oxo-4H-pyrido[1,2-a]pyrimidin-3-yl)methyl)amino)-cyclopropane-1-carboxylic acid] yielded an IC50 of 0.4 nM.

`COc1nc(-c2cccc(-c3cccc(-c4ccn5c(=O)c(CN(C)CCCO)cnc5c4)c3Cl)c2Cl)ccc1CNC[C@@H]1CCC(=O)N1` [Example 317, (S)-8-(2,2′-Dichloro-3′-(6-methoxy-5-((((5-oxopyrrolidin-2-yl)methyl)amino)methyl)pyridin-2-yl)-[1,1′-biphenyl]-3-yl)-3-(((3-hydroxypropyl)(methyl)amino)methyl)-4H-pyrido[1,2-a]pyrimidin-4-one] yielded an IC50 of 0.2 nM.

As for `COc1nc(-c2cccc(-c3cccc(-c4cn5cc(CNC[C@@H]6CCC(=O)N6)ccc5n4)c3Cl)c2Cl)ccc1CNC[C@@H]1CCC(=O)N1` [Example 99, (S)-5-((((6-(2,2′-Dichloro-3′-(6-(((((S)-5-oxopyrrolidin-2-yl)methyl)amino)methyl)imidazo[1,2-a]pyridin-2-yl)-[1,1′-biphenyl]-3-yl)-2-methoxypyridin-3-yl)methyl)amino)methyl)pyrrolidin-2-one], the concentration for half-maximal inhibition (IC50) was found to be 4.8 nM.

In turn, `COc1nc(-c2cccc(-c3cccc(-c4ccc5nc(CN[C@H]6C[C@H](O)C6)n(C)c5n4)c3Cl)c2Cl)ccc1CN[C@H]1C[C@H](O)C1` [Example 315] displayed an IC50 of 0.4 nM.

In turn, `COc1nc(-c2cccc(-c3cccc(-c4ccn5c(=O)c(CNCC(C)(O)C6CC6)cnc5c4)c3Cl)c2Cl)ccc1CNC[C@@H]1CCC(=O)N1` (mixture of isomers) [Example 280, 3-(((2-cyclopropyl-2-hydroxypropyl)amino)methyl)-8-(2,2′-dichloro-3′-(6-methoxy-5-(((((S)-5-oxopyrrolidin-2-yl)methyl)amino)methyl)pyridin-2-yl)-[1,1′-biphenyl]-3-yl)-4H-pyrido[1,2-a]pyrimidin-4-one] returned an IC50 of 37 nM.

`Cc1c(/C=C(\F)c2ccc(CNCCO)cn2)cccc1-c1cccc(-c2ccn3c(=O)c(CNCCO)cnc3c2)c1C` [Example 21, (Z)-8-(3′-(2-Fluoro-2-(5-(((2-hydroxyethyl)amino)methyl)pyridin-2-yl)vinyl)-2,2′-dimethyl-[1,1′-biphenyl]-3-yl)-3-(((2-hydroxyethyl)amino)methyl)-4H-pyrido[1,2-a]pyrimidin-4-one] came in with an IC50 of 4.8 nM.

As for `COc1nc(-c2cccc(-c3cccc(-c4ccn5c(=O)c(CN6CC(C(=O)O)C6)cnc5c4)c3Cl)c2Cl)cnc1CN1CC(CO)C1` [Example 93, 1-((8-(2,2′-Dichloro-3′-(5-((3-(hydroxymethyl)azetidin-1-yl)methyl)-6-methoxypyrazin-2-yl)-[1,1′-biphenyl]-3-yl)-4-oxo-4H-pyrido[1,2-a]pyrimidin-3-yl)methyl)azetidine-3-carboxylic acid], the midpoint of inhibition, the IC50, lay at 0.3 nM.

On to `COc1nc(-c2cccc(-c3cccc(-c4ccn5c(=O)c(CNC[C@@H](O)CC(=O)O)cnc5c4)c3Cl)c2Cl)ccc1CNC[C@@H]1CCC(=O)N1` [Example 126, (S)-4-(((8-(2,2′-Dichloro-3′-(6-methoxy-5-(((((S)-5-oxopyrrolidin-2-yl)methyl)amino)methyl)pyridin-2-yl)-[1,1′-biphenyl]-3-yl)-4-oxo-4H-pyrido[1,2-a]pyrimidin-3-yl)methyl)amino)-3-hydroxybutanoic acid], for which it took 0.4 nM to reach half-maximal inhibition (IC50).

`COC[C@@H](NCc1cnc2cc(-c3cccc(-c4cccc(-c5ccc(CNC[C@@H]6CCC(=O)N6)c(OC)n5)c4Cl)c3Cl)ccn2c1=O)C(=O)O` [Example 150, N-((8-(2,2′-Dichloro-3′-(6-methoxy-5-(((((S)-5-oxopyrrolidin-2-yl)methyl)amino)methyl)-pyridin-2-yl)-[1,1′-biphenyl]-3-yl)-4-oxo-4H-pyrido[1,2-a]pyrimidin-3-yl)methyl)-O-methyl-D-serine] registered an IC50 of 0.3 nM.
